Measured values as given in US20050222076A1, “Composition for cell proliferation” (OTSUKA PHARMACEUTICAL CO., LTD., priority 2002, published 2005).

System: human keratinocyte
Assay: In vitro cultured human keratinocyte cell proliferation promoting effect (WST-1)
Format: cell-based
Details: primary-cultured human keratinocyte, cultured two days; AMP 0-1 w/v % combined with UMP 0.000001-0.1 w/v %; versus comparative sample without uridine monophosphate disodium set as 1; FIG. 1
Description: Primary-cultured human keratinocyte (manufactured by Kurabo Industries, Ltd.) was cultured in a 10-cm petri dish, and the cultured cells were collected in the subconfluent state and then stored in a frozen state. The following experiments were conducted using those cryopreserved cells.
1. The cryopreserved cells were dissolved in HuMediaKG2 liquid culture media (manufactured by Kurabo Industries, Ltd.), the cell concentration was adjusted to […]. 50 μl of thus obtained cells-containing solution was poured into each well of a test plate to adjust the cell concentration to 2500 cells/50 μl/well.
2. […]
3. […] The test samples contained solutions at various concentrations prepared by blending uridine monophosphate disodium to adenosine monophosphate disodium solutions in which the concentration of adenosine monophosphate contained in the 300 μl of the test sample was adjusted to 0, 0.0001, 0.001, 0.01, 0.1, and 1 W/V %, so that the concentration of uridine monophosphate disodium was adjusted to 0, 0.000001 (1E-06), 0.00001 (1E-05), 0.0001, 0.001, 0.01 and 0.1 w/v % as calculated based on the concentration of the uridine monophosphate.
4. Two days after culture initiation, the proliferation of human keratinocyte cells was measured using a WST-1 reagent (manufactured by TaKaRa) based on the rise in absorbance. […]

SMILES	cell proliferation promoting effect of adenosine monophosphate disodium when blended with uridine monophosphate disodium (relative ratio of number of cells, ratio of cont.)
Nc1ncnc2c1ncn2[C@@H]1O[C@H](COP(=O)([O-])[O-])[C@@H](O)[C@H]1O.[Na+].[Na+] [adenosine monophosphate disodium]	potentiated and promoted
O=c1ccn([C@@H]2O[C@H](COP(=O)([O-])[O-])[C@@H](O)[C@H]2O)c(=O)[nH]1.[Na+].[Na+] [uridine monophosphate disodium]	potentiated and promoted
